Experimental data: PubChem BioAssay AID256 (DTP/NCI, 2004)
Several values for one entry are separate records, joined by “and”; a condition that tells them apart may be missing. Identical values can stand only once. Inconclusive results and toxic doses are left out. The calls were made as follows: active = survival T/C of 150% or more; inactive = T/C below 125% in these data.

Test system: CD2F1 mice, L1210 leukemia ip, survival T/C
Assay: NCI In Vivo Anticancer Drug Screen. Data for tumor model L1210 Leukemia (intraperitoneal) in CD2F1 (CDF1) mice
Conditions: higher = longer survival
Outline: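 Vehicle-treated tumor-bearing mice served as controls (C) for compound-treated mice (T). Reported figure is T divided by C.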

[1] = endpoint: mean survival time, dose: 100.0 mg/kg/injection, schedule: Q04DX003 (ip), vehicle: saline with Tween-80
[2] = endpoint: mean survival time, dose: 200.0 mg/kg/injection, schedule: Q04DX003 (ip), vehicle: saline with Tween-80
[3] = endpoint: mean survival time, dose: 400.0 mg/kg/injection, schedule: Q04DX003 (ip), vehicle: saline with Tween-80
[4] = endpoint: mean survival time, dose: 100.0 mg/kg/injection, schedule: Q04DX002 (ip), vehicle: saline with Tween-80
[5] = endpoint: mean survival time, dose: 200.0 mg/kg/injection, schedule: Q04DX002 (ip), vehicle: saline with Tween-80
[6] = endpoint: mean survival time, dose: 400.0 mg/kg/injection, schedule: Q04DX002 (ip), vehicle: saline with Tween-80
[7] = endpoint: mean survival time, dose: 50.0 mg/kg/injection, schedule: Q01DX009 (ip), vehicle: saline with Tween-80
[8] = endpoint: mean survival time, dose: 100.0 mg/kg/injection, schedule: Q01DX001 (ip), vehicle: saline with Tween-80
[9] = endpoint: mean survival time, dose: 200.0 mg/kg/injection, schedule: Q01DX001 (ip), vehicle: saline with Tween-80
[10] = endpoint: mean survival time, dose: 100.0 mg/kg/injection, schedule: Q01DX009 (ip), vehicle: saline with Tween-80
[11] = endpoint: mean survival time, dose: 200.0 mg/kg/injection, schedule: Q01DX009 (ip), vehicle: saline with Tween-80
[12] = endpoint: mean survival time, dose: 400.0 mg/kg/injection, schedule: Q01DX009 (ip), vehicle: saline with Tween-80

Measured: T/C

CCOC(=O)NC(S(=O)(=O)O)S(=O)(=O)O.[Tl]
inactive: endpoint: mean survival time, dose: 6.25 mg/kg/injection, schedule: Q01DX001 (ip), vehicle: saline with Tween-80 98 % of control | endpoint: mean survival time, dose: 12.5 mg/kg/injection, schedule: Q01DX001 (ip), vehicle: saline with Tween-80 90 % of control | endpoint: mean survival time, dose: 25.0 mg/kg/injection, schedule: Q01DX001 (ip), vehicle: saline with Tween-80 98 % of control

COc1cc2c3c(c1OC)C1(C=CC(=O)C=C1)CC3N(C(C)=O)CC2 (configuration not stated)
inactive: [1] 97 % of control | [2] 95 % of control | [3] 94 % of control

O=C(Nc1ccccn1)OCc1ccccc1
inactive: [4] 112 % of control | [5] 101 % of control | [6] 97 % of control

CN(C)c1ccc(/C=N/NC(=O)CNC(=O)Nc2cccc([N+](=O)[O-])c2)c(Cl)c1
inactive: [7] 88 % of control

OC(c1ccccc1)(c1ccc2ccccc2n1)c1cccs1 (configuration not stated)
inactive: endpoint: mean survival time, dose: 100.0 mg/kg/injection, schedule: Q04DX003 (ip), vehicle: saline 102 % of control | endpoint: mean survival time, dose: 200.0 mg/kg/injection, schedule: Q04DX003 (ip), vehicle: saline 90 % of control | endpoint: mean survival time, dose: 400.0 mg/kg/injection, schedule: Q04DX003 (ip), vehicle: saline 90 % of control

Nc1n[n+](-c2ccc(Cl)cc2)no1
inactive: endpoint: mean survival time, dose: 1.56 mg/kg/injection, schedule: Q01DX009 (ip), vehicle: water 92 % of control | endpoint: mean survival time, dose: 3.12 mg/kg/injection, schedule: Q01DX009 (ip), vehicle: water 97 % of control and 112 % of control | endpoint: mean survival time, dose: 6.25 mg/kg/injection, schedule: Q01DX009 (ip), vehicle: water 93 % of control and 96 % of control | endpoint: mean survival time, dose: 12.5 mg/kg/injection, schedule: Q01DX009 (ip), vehicle: water 95 % of control and 98 % of control | endpoint: mean survival time, dose: 25.0 mg/kg/injection, schedule: Q01DX009 (ip), vehicle: water 103 % of control and 104 % of control | endpoint: mean survival time, dose: 50.0 mg/kg/injection, schedule: Q01DX009 (ip), vehicle: water 114 % of control

O=C(O)c1sc(C(=O)O)c(-c2ccccc2)c1-c1ccccc1
inactive: endpoint: mean survival time, dose: 100.0 mg/kg/injection, schedule: Q01DX009 (ip), vehicle: saline sonified 92 % of control | endpoint: mean survival time, dose: 200.0 mg/kg/injection, schedule: Q01DX009 (ip), vehicle: saline sonified 90 % of control | endpoint: mean survival time, dose: 400.0 mg/kg/injection, schedule: Q01DX009 (ip), vehicle: saline sonified 103 % of control

Cc1c2c(cc3c1CCC1(C)C(C(C)CCC(C)C(C)C)CC(O)C31O)CCCC2 (configuration not stated)
inactive: endpoint: mean survival time, dose: 50.0 mg/kg/injection, schedule: Q01DX001 (ip), vehicle: saline with Tween-80 92 % of control | [8] 94 % of control | [1] 96 % of control | [9] 92 % of control | [2] 98 % of control | [3] 98 % of control

COc1cc(NC(=O)Nc2cccc(Cl)c2)c(OC)cc1Cl
inactive: [4] 94 % of control | [6] 91 % of control

C/C=C(\C)C(C)(C#N)Nc1ccccc1 (configuration not stated)
inactive: [7] 103 % of control | [10] 100 % of control | [1] 101 % of control | [11] 102 % of control | [2] 101 % of control | [3] 95 % of control

O=C(/C=C\c1ccc(Cl)cc1)c1ccccc1
inactive: [8] 100 % of control | [9] 96 % of control | endpoint: mean survival time, dose: 400.0 mg/kg/injection, schedule: Q01DX001 (ip), vehicle: saline with Tween-80 96 % of control

COC(=O)C(Cc1[nH]c(N=Nc2ccc(Br)cc2)nc1N=Nc1ccc(Br)cc1)NC(C)=O (configuration not stated)
inactive: [4] 93 % of control | [5] 96 % of control | [6] 96 % of control

O=C(CCC(O)(C(=O)c1ccccc1)c1ccccc1)c1ccccc1 (configuration not stated)
inactive: [1] 91 % of control | [2] 94 % of control | [3] 88 % of control

OC(c1ccccc1)(c1ccccc1)c1ccc(Cl)cc1
inactive: [10] 97 % of control | [11] 101 % of control | [12] 101 % of control

O=C(O)Cc1ccc(Cl)cc1
inactive: endpoint: mean survival time, dose: 75.0 mg/kg/injection, schedule: Q01DX009 (ip), vehicle: saline with Tween-80 96 % of control | endpoint: mean survival time, dose: 150.0 mg/kg/injection, schedule: Q01DX009 (ip), vehicle: saline with Tween-80 102 % of control | endpoint: mean survival time, dose: 300.0 mg/kg/injection, schedule: Q01DX009 (ip), vehicle: saline with Tween-80 88 % of control

COc1cc2ccc(-c3cc(C(=O)O)c4ccccc4n3)cc2cc1OC
inactive: endpoint: mean survival time, dose: 75.0 mg/kg/injection, schedule: Q01DX001 (ip), vehicle: saline 93 % of control | endpoint: mean survival time, dose: 150.0 mg/kg/injection, schedule: Q01DX001 (ip), vehicle: saline 93 % of control

COC(=O)C1C2CC(=O)C(C2)C1C(=O)OC (configuration not stated)
inactive: [10] 93 % of control | [11] 99 % of control | [12] 93 % of control

OC(Cc1cc(CC(O)(C(F)(F)F)C(F)(F)F)ncn1)(C(F)(F)F)C(F)(F)F
inactive: [1] 97 % of control | [2] 93 % of control | [3] 91 % of control

O=C(Nc1cccc(O)c1)C(Cl)=C(Cl)Cl
inactive: endpoint: median survival time, dose: 1.12 mg/kg/injection, schedule: Q01DX005 (ip), vehicle: DMSO 100 % of control | endpoint: median survival time, dose: 1.19 mg/kg/injection, schedule: Q01DX005 (ip), vehicle: DMSO 101 % of control | endpoint: median survival time, dose: 1.87 mg/kg/injection, schedule: Q01DX005 (ip), vehicle: DMSO 100 % of control and 102 % of control | endpoint: median survival time, dose: 3.12 mg/kg/injection, schedule: Q01DX005 (ip), vehicle: DMSO 113 % of control and 98 % of control | endpoint: median survival time, dose: 5.19 mg/kg/injection, schedule: Q01DX005 (ip), vehicle: DMSO 104 % of control | endpoint: median survival time, dose: 5.2 mg/kg/injection, schedule: Q01DX005 (ip), vehicle: DMSO 108 % of control | endpoint: median survival time, dose: 6.25 mg/kg/injection, schedule: Q01DX005 (ip), vehicle: other 120 % of control | endpoint: median survival time, dose: 8.66 mg/kg/injection, schedule: Q01DX005 (ip), vehicle: DMSO 102 % of control | endpoint: median survival time, dose: 8.67 mg/kg/injection, schedule: Q01DX005 (ip), vehicle: DMSO 114 % of control | endpoint: median survival time, dose: 12.5 mg/kg/injection, schedule: Q01DX005 (ip), vehicle: other 118 % of control | endpoint: median survival time, dose: 25.0 mg/kg/injection, schedule: Q01DX005 (ip), vehicle: other 93 % of control

COc1cc(CO)ccc1OCc1ccccc1
inactive: [1] 98 % of control | [2] 96 % of control | [3] 105 % of control

C=C(Br)CNC(=O)NCC
inactive: endpoint: mean survival time, dose: 25.0 mg/kg/injection, schedule: Q04DX003 (ip), vehicle: saline with Tween-80 94 % of control | endpoint: mean survival time, dose: 50.0 mg/kg/injection, schedule: Q04DX003 (ip), vehicle: saline with Tween-80 105 % of control | [1] 100 % of control

O=S1(=O)OCCCC1=C(c1ccccc1)c1ccccc1
inactive: endpoint: mean survival time, dose: 75.0 mg/kg/injection, schedule: Q01DX009 (ip), vehicle: saline 102 % of control | endpoint: mean survival time, dose: 75.0 mg/kg/injection, schedule: Q04DX003 (ip), vehicle: saline 101 % of control | endpoint: mean survival time, dose: 150.0 mg/kg/injection, schedule: Q01DX009 (ip), vehicle: saline 97 % of control | endpoint: mean survival time, dose: 150.0 mg/kg/injection, schedule: Q04DX003 (ip), vehicle: saline 94 % of control | endpoint: mean survival time, dose: 300.0 mg/kg/injection, schedule: Q01DX009 (ip), vehicle: saline 97 % of control | endpoint: mean survival time, dose: 300.0 mg/kg/injection, schedule: Q04DX003 (ip), vehicle: saline 97 % of control
